This is an account of results in article PMC5585294, “A potent series targeting the malarial cGMP-dependent protein kinase clears infection and blocks transmission” (Nature Communications, 2017).

Broadly, the IC50 is the midpoint of a concentration-inhibition curve. A word on the half-life: it is the time in which the quantity being followed falls by half. A low value points to rapid decline. Usually EC50 stands for the concentration needed to bring the measured effect to its halfway point. One may read the EC90 as the concentration needed for an effect of 90%. One may read the inhibition as the percentage by which the read-out fell short of the control.

Series [1] deals with P. falciparum gatekeeper mutant (T618Q) stage V gametocytes. Put plainly: Gametogenesis (rounding up) assay, T618Q stage V gametocytes. Type of series: cell-based, Plasmodium falciparum. To be noted: 30 µM xanthurenic acid; 2 µM ML1, 1 µM ML10.
The subject of series [2] is panel of 80 human protein kinases. Put plainly: Human kinase panel single point screen. Type of series: biochemical. To be noted: tested at 100 nM. An excerpt:
(§1) The results are expressed as % inhibition of kinase activity.
(§2) (1 picture or pasted object on this page, not shown here)

Series [3] has as its system P. falciparum strain 3D7A. Kind of series: In vitro parasite reduction rate (PRR) assay. To be noted: 10× EC50.
Description: The assay used the limiting dilution technique to quantify the number of parasites that remained viable after drug treatment. […] To quantify the number of viable parasites after treatment, threefold serial dilutions were used with the above-mentioned samples after removing the drug. Four independent serial dilutions were performed with each sample to correct experimental variations. The number of viable parasites was determined after 21 and 28 days by counting the number of wells with growth using [^3H]-hypoxanthine incorporation. The number of viable parasites was back-calculated by using the formula X ^n-1 where n is the number of wells able to render growth and X the dilution factor (when n = 0, number of viable parasites is estimated as zero).
Series [4] in a line: Stability in human liver microsomes. The note with it: human, microsomes, 40 min. The procedure:
(§3) Compound mlm hlm mLogD PAMPA HepG2 name (%rem) (%rem) (nm/s) (IC50 µM)
(§4) Supplementary Table 2. Compound Properties. MLM, HLM, mLogD and PAMPA . mlm (%rem): % of compound remaining after 30 minutes’ incubation with mouse liver microsomes; hlm (%rem): % of compound remaining after 40 minutes’ incubation with human liver microsomes; mLogD: measured LogD at pH 7.4; PAMPA: parallel artificial membrane permeability assay; HepG2: Cytotoxicity assay using HepG2 cells; n.t.: not tested.
On the technique in general: Liver microsomes are a subcellular fraction often used to study metabolism.

The nature of series [5]: Cytotoxicity assay using HepG2 cells. To be noted: human. The procedure: as §3, §4
The subject of series [6] is P. falciparum (NF54) gametocytes. Put plainly: Standard membrane feeding assay (SMFA), gametocytes fed to Anopheles stephensi. Type of series: cell-based, Plasmodium falciparum. To be noted: Plasmodium falciparum, NF54; gametocytes pre-incubated 24 h, oocysts counted day 7 post-feed; read-out: IC50 for reduction of the intensity of infection (oocysts). How it is done: Mature P. falciparum (NF54) gametocytes (14 day culture, 0.3–0.5% gametocytes, 2% haematocrit) were obtained from an automated tipper system and incubated with compound for 24 h as previously described. Anopheles stephensi (Sind-Kasur Nijmegen strain[39] were reared at 30 °C and 70–80% humidity, while exposed to a 12/12 h day/night cycle. On the day of feeding, the gametocyte culture was adjusted to 50% hematocrit with human red blood cells and human serum and fed to 3–5 day old mosquitoes using a glass membrane mini-feeder system containing 0.35 ml of the P. falciparum culture/compound mix[40]. Unfed and partially fed mosquitoes were removed after feeding and blood fed females were maintained at 26 °C and 70–80% humidity. Up to 20 surviving mosquitoes were collected on day 7 post-infection and oocysts were visualized using a 1% merchurochrome solution and quantified by microscopy. IC50 values were determined by logistic regression using Maximum Likelihood Estimation to find best fit[41].

Series [7] is described as follows: in vivo. The note with it: NOD-scid IL-2Rγc-null, mouse, po. The procedure: The blood samples were immediately lysed by mixing with 25 μl of distilled water, frozen on dry ice and stored at −80 °C until analysis. The compounds were extracted from 10 μl of each lysate by liquid–liquid extraction in the MultiScreen Solvinert 0.45 μm Hydrophobic PTFE 96-well plate system (Millipore) and stored frozen at −80 °C until analysis by LC/MS/MS in API4000 (AB Sciex, Framingham, MA). The compound concentration vs. time data were analyzed by non-compartmental analysis using Phoenix® Version 6.3 (Pharsight Corporation, Mountain View, CA, USA). Additional statistical analysis was performed with GraphPad Prism® Version 6.02 (GraphPad Software Inc, San Diego CA, USA).

The next series relates to P. falciparum 3D7. Put plainly: Hypoxanthine incorporation growth inhibition assay, asexual blood stage, wild-type 3D7. Type of series: cell-based, Plasmodium falciparum. The note with it: 3D7 asexual blood stage growth, 72 h, +/- s.e.m.; for EC50: read-out: EC50 WT. The procedure: Hypoxanthine incorporation assays[36] were performed on P. falciparum asexual blood stage parasites (wild-type 3D7 or T618Q gatekeeper mutant) to determine EC50 values for test compounds. Mixed staged parasites (primarily rings) were added to 96 well plates containing compounds at concentrations of 50 μM–0.3 nM. […] Assays were carried out in triplicate at least twice.

Series [8] can be described thus: Stability in mouse liver microsomes. To be noted: mouse, microsomes, 0.5 h. How it is done:
as §3, §4

A further series deals with P. chabaudi (AS). Put plainly: Synchronous P. chabaudi AS model in BALB/c mice. To be noted: 4 days. The format is in vivo, Plasmodium chabaudi. How it is done:
Similar experiments were performed using P. chabaudi AS (from David Walliker, University of Edinburgh) with the following modifications. To allow dosing to be carried out more conveniently during the day, reversal of the light/dark exposure of mice for 2 weeks prior to the experiment was used to switch schizogony from midnight to noon each day. Mice were dosed at different time points in an attempt to have maximal coverage at the point of schizogony. All animal work protocols carried out at LSHTM were approved and licensed by the United Kingdom Home Office as governed by law under the Animals (Scientific Procedures) Act of 1986, in strict accordance with the Code of Practice Part 1 for the housing and care of animals (21 March 2005), available at http://www.homeoffice.gov.uk/science-research/animal-research/

The nature of series [9]: in vivo. To be noted: BALB/c, mouse, po. From the text: (§5) Supplementary Figure 4. Plasma concentrations over time in rodent malaria models. […] Error bars show the standard deviation. (1 picture or pasted object on this page, not shown here)
In a further series the target is T1, human MLK3 (Homo sapiens, UniProt Q16584).
T1 construct: Protein Phosphorylation Unit, Dundee (screening site)
T1 sequence (Q16584 whole entry): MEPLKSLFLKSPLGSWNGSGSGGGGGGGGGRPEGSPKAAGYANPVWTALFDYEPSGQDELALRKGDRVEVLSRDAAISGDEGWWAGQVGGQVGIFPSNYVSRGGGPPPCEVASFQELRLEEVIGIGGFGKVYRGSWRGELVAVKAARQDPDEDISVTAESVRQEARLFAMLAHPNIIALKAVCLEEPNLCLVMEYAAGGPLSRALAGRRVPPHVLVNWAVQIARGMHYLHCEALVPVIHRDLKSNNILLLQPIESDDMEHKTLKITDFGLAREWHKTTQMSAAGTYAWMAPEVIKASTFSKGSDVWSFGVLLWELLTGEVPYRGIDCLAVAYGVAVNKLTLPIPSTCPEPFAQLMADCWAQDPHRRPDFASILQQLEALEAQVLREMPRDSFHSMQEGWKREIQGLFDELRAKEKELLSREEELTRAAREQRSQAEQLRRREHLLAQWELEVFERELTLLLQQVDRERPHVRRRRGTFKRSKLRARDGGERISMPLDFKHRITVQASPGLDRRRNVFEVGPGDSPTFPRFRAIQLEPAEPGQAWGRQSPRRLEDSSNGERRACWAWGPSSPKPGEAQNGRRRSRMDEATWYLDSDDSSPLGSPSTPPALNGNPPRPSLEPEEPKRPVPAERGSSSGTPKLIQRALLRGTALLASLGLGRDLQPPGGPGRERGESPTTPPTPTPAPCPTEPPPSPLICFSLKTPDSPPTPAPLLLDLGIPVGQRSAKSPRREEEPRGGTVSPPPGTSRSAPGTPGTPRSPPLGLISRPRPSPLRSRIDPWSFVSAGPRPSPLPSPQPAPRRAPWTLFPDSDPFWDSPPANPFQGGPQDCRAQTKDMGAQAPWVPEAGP
Put plainly: Human kinase panel single point screen, MLK3. Type of series: biochemical. To be noted: at 100 nM; highest level of inhibition in the panel.
Description: as §1, §2

Series [10] can be described thus: Plasma levels in satellite groups of mice, P. berghei experiment. The format is in vivo, mouse. The note with it: BALB/c, mouse, in vivo, po, 25 mg/kg.
Description: as §5

Series [11] is described as follows: Cytotoxicity assay (ATP depletion), MCF7. Type of series: cell-based. To be noted: human, MCF7 breast adenocarcinoma cells, 0.001–10 µM, n = 6. How it is done: A549 (lung carcinoma; ATCC, Ref. ATCC® CCL-185™), plated at 7.5×10^3 cells/well; HT-29 (colorectal adenocarcinoma; ATCC, Ref. ATCC® HTB-38™), plated at 7.5×10^3 cells/well; and MCF7 (breast adenocarcinoma; ATCC, Ref. ATCC® HTB-22™), plated at 9× 10^3 cells/well, were placed into clear bottom, opaque 96 well plates in cell line-specific medium and allowed to attach overnight. […] FCS, 1× GlutaMAX™ Supplement (Life Technologies, 35050061) and 50 units/ml penicillin and 50 µg/ml streptomycin for 48 h. Six independent assays were performed for each line and were carried out by CXR Biosciences Ltd. End point for cytotoxicity assessment was carried out using an ATP depletion kit (CellTiter-Glo Luminescent Cell Viability Assay for ATP quantitation (Promega, Cat # G7572)). Results expressed relative to the 0.1% DMSO control. Unpaired Student’s t-tests were performed using GraphPad Prism software (7.0).

Read-outs that look alike come from different tables or passages of the source.

Turning to `Cc1cn2c(-c3ccnc(NCC4CC4)n3)c(-c3ccc(F)c(NS(C)(=O)=O)c3)nc2cc1CN(C)C` [ML10], in series [1], the “rounding up of T618Q gametocytes” value is “insensitive”. Further, in series [2], the “inhibitory activity against panel of 80 human protein kinases” value was “only low levels of inhibitory activity”. In series [3], the “lag before killing (effects reversible following wash-out)” value is given as “about 24 h”. For the same molecule, the “hlm (%rem)” value in [4] is recorded as 61%. Also, the IC50 is greater than 20000 nM in series [5] and 41.3 nM in [6]. Also, the half-life was 8.7 h in the series “in vivo [7]” (50 mg/kg); 17 h in “in vivo [7]” (100 mg/kg); 0.8 h in “in vivo [9]” (25 mg/kg); 1.1 h in the series “in vivo [9]” (50 mg/kg); 0.8 h in series [10]. Also, the EC50 is 2.1 nM in the series on P. falciparum 3D7 and roughly 2 nM with P. falciparum 3D7 (Plasmodium falciparum, 3D7, 72 h). Also, in the series with P. falciparum 3D7 (Plasmodium falciparum), the 90% effect level (EC90) was put at 4.5 nM. Moreover, the “mlm (%rem)” value in series [8] is recorded as 59%. Further, in the series with P. chabaudi (AS) (single daily oral dose 50 mg/kg just prior to schizogony), the “reduction in blood stage parasitaemia” value is on record as 60.9%. Moreover, in the series with P. chabaudi (AS) (twice daily oral dose 50 mg/kg (3 h apart)), the “reduction in blood stage parasitaemia (mean)” value stood at 97.8%. The molecule also came in with a concentration at 30 min in “in vivo [9]” (50 mg/kg) of 10.4 µM. This molecule came in with a concentration at 60 min in the series “in vivo [9]” (50 mg/kg) of roughly 8.4 µM. The concentration at 4 h in the series “in vivo [9]” (50 mg/kg) is less than 0.084 µM. On human MLK3, this molecule registered an inhibition at 0.1 µM of 40%. This molecule showed a 50% effective concentration (EC50) at 48 h in series [11] greater than 10000 nM.
